Molecules are shown by their SMILES.

The record followed here is US8263046B2, “N-phenyl-N-pyridinyl-benzamides and benzenesulfonomides having cooling properties” (Givaudan S.A., priority 2005, dated 2012).

For this assay, the system named is panelists. As to the kind of experiment: Experiments on cooling properties/intensities: panelists taste aqueous solutions. Format: in vivo. Particulars: aqueous solution with cooling intensity similar or slightly higher than that of a solution of I-menthol at 2 ppm.
In turn, `O=S(=O)(c1ccc(Cl)cc1)N(CCc1ccccn1)c1ccccc1` [Example 3a, 4-Chloro-N-phenyl-N-[2-(pyridin-2-yl)ethyl]benzenesulfonamide] displayed a Concentration of 2 ppm.
With `CCNC(=O)C1CC(C)CCC1C(C)C` (stereo not shown) [WS-3, N-ethyl p-menthanecarboxamide, reference compound], the Concentration worked out at 1.5 ppm.
Turning to `COc1ccc(S(=O)(=O)N(CCc2ccccn2)c2ccccc2)cc1` [Example 2, 4-Methoxy-N-phenyl-N-[2-(pyridin-2-yl)ethyl]benzenesulfonamide], the Concentration came out at 2 ppm.
`COc1ccc(C(=O)N(CCc2ccccn2)c2ccccc2)cc1` [Example 1, 4-Methoxy-N-phenyl-N-[2-(pyridin-2-yl)ethyl]benzamide] showed a Concentration of 1.5 ppm.
